# Results taken from the NIST ThermoML archive (doi:10.1016/j.fluid.2010.02.010).
# Numbers after ± are expanded uncertainties.
# Legend:
# [1] = excess molar enthalpy (molar enthalpy of mixing); xn = mol fraction of the nth substance listed; settings: 101 kPa, Liquid, Flow calorimetry
# [2] = activity coefficient (dimensionless); of the first substance listed, at infinite dilution; xn = mol fraction of the nth substance listed; settings: 101 kPa, Liquid, x1 = 0
# [3] = 101.33 kPa, Liquid, Vibrating tube method
compound,measurement,setting,value
CCCCn1cc[n+](C)c1.O=S(=O)([O-])C(F)(F)F [1-butyl-3-methylimidazolium trifluoromethanesulfonate] + C=CCCCC,excess molar enthalpy,"[1]; 413.15 K, x2 = 0.0431",0.0981 ± 0.0024 kJ/mol
same,excess molar enthalpy,"[1]; 413.15 K, x2 = 0.0845",0.185 ± 0.0042 kJ/mol
same,excess molar enthalpy,"[1]; 413.15 K, x2 = 0.1632",0.252 ± 0.0056 kJ/mol
same,excess molar enthalpy,"[1]; 413.15 K, x2 = 0.2004",0.241 ± 0.0054 kJ/mol
same,excess molar enthalpy,"[1]; 413.15 K, x2 = 0.2364",0.232 ± 0.0052 kJ/mol
same,excess molar enthalpy,"[1]; 413.15 K, x2 = 0.3049",0.212 ± 0.0048 kJ/mol
same,excess molar enthalpy,"[1]; 413.15 K, x2 = 0.3691",0.196 ± 0.0044 kJ/mol
same,excess molar enthalpy,"[1]; 413.15 K, x2 = 0.4292",0.177 ± 0.004 kJ/mol
same,excess molar enthalpy,"[1]; 413.15 K, x2 = 0.5391",0.14 ± 0.0033 kJ/mol
same,excess molar enthalpy,"[1]; 413.15 K, x2 = 0.637",0.113 ± 0.0027 kJ/mol
same,excess molar enthalpy,"[1]; 413.15 K, x2 = 0.7247",0.086 ± 0.0022 kJ/mol
same,excess molar enthalpy,"[1]; 413.15 K, x2 = 0.8404",0.0521 ± 0.0015 kJ/mol
same,excess molar enthalpy,"[1]; 413.15 K, x2 = 0.9405",0.0204 ± 0.0009 kJ/mol
CCCCn1cc[n+](C)c1.O=S(=O)([O-])C(F)(F)F [1-butyl-3-methylimidazolium trifluoromethanesulfonate] + CCCCCC,excess molar enthalpy,"[1]; 413.15 K, x2 = 0.0413",0.239 ± 0.0053 kJ/mol
same,excess molar enthalpy,"[1]; 413.15 K, x2 = 0.1199",0.316 ± 0.007 kJ/mol
same,excess molar enthalpy,"[1]; 413.15 K, x2 = 0.1573",0.302 ± 0.0067 kJ/mol
same,excess molar enthalpy,"[1]; 413.15 K, x2 = 0.1936",0.287 ± 0.0064 kJ/mol
same,excess molar enthalpy,"[1]; 413.15 K, x2 = 0.2287",0.274 ± 0.0061 kJ/mol
same,excess molar enthalpy,"[1]; 413.15 K, x2 = 0.2958",0.249 ± 0.0056 kJ/mol
same,excess molar enthalpy,"[1]; 413.15 K, x2 = 0.359",0.228 ± 0.0051 kJ/mol
same,excess molar enthalpy,"[1]; 413.15 K, x2 = 0.4186",0.206 ± 0.0047 kJ/mol
same,excess molar enthalpy,"[1]; 413.15 K, x2 = 0.5283",0.173 ± 0.004 kJ/mol
same,excess molar enthalpy,"[1]; 413.15 K, x2 = 0.6269",0.133 ± 0.0031 kJ/mol
same,excess molar enthalpy,"[1]; 413.15 K, x2 = 0.7159",0.104 ± 0.0025 kJ/mol
same,excess molar enthalpy,"[1]; 413.15 K, x2 = 0.8344",0.0619 ± 0.0017 kJ/mol
same,excess molar enthalpy,"[1]; 413.15 K, x2 = 0.938",0.0286 ± 0.0011 kJ/mol
CCCCn1cc[n+](C)c1.O=S(=O)([O-])C(F)(F)F [1-butyl-3-methylimidazolium trifluoromethanesulfonate] + CCCCCCC,excess molar enthalpy,"[1]; 363.15 K, x2 = 0.02",0.0745 ± 0.0019 kJ/mol
same,excess molar enthalpy,"[1]; 363.15 K, x2 = 0.0501",0.135 ± 0.0032 kJ/mol
same,excess molar enthalpy,"[1]; 363.15 K, x2 = 0.1001",0.176 ± 0.004 kJ/mol
same,excess molar enthalpy,"[1]; 363.15 K, x2 = 0.1502",0.182 ± 0.0042 kJ/mol
same,excess molar enthalpy,"[1]; 363.15 K, x2 = 0.2002",0.175 ± 0.004 kJ/mol
same,excess molar enthalpy,"[1]; 363.15 K, x2 = 0.3003",0.155 ± 0.0036 kJ/mol
same,excess molar enthalpy,"[1]; 363.15 K, x2 = 0.4003",0.13 ± 0.0031 kJ/mol
same,excess molar enthalpy,"[1]; 363.15 K, x2 = 0.5003",0.11 ± 0.0027 kJ/mol
same,excess molar enthalpy,"[1]; 363.15 K, x2 = 0.6003",0.0865 ± 0.0022 kJ/mol
same,excess molar enthalpy,"[1]; 363.15 K, x2 = 0.7003",0.0634 ± 0.0017 kJ/mol
same,excess molar enthalpy,"[1]; 363.15 K, x2 = 0.8002",0.0413 ± 0.0013 kJ/mol
same,excess molar enthalpy,"[1]; 363.15 K, x2 = 0.9001",0.0206 ± 0.0009 kJ/mol
same,excess molar enthalpy,"[1]; 413.15 K, x2 = 0.0371",0.305 ± 0.0067 kJ/mol
same,excess molar enthalpy,"[1]; 413.15 K, x2 = 0.1085",0.349 ± 0.0077 kJ/mol
same,excess molar enthalpy,"[1]; 413.15 K, x2 = 0.143",0.348 ± 0.0076 kJ/mol
same,excess molar enthalpy,"[1]; 413.15 K, x2 = 0.1766",0.337 ± 0.0074 kJ/mol
same,excess molar enthalpy,"[1]; 413.15 K, x2 = 0.2094",0.324 ± 0.0071 kJ/mol
same,excess molar enthalpy,"[1]; 413.15 K, x2 = 0.2729",0.298 ± 0.0066 kJ/mol
same,excess molar enthalpy,"[1]; 413.15 K, x2 = 0.3335",0.274 ± 0.0061 kJ/mol
same,excess molar enthalpy,"[1]; 413.15 K, x2 = 0.3915",0.256 ± 0.0057 kJ/mol
same,excess molar enthalpy,"[1]; 413.15 K, x2 = 0.5002",0.211 ± 0.0048 kJ/mol
same,excess molar enthalpy,"[1]; 413.15 K, x2 = 0.6002",0.171 ± 0.0039 kJ/mol
same,excess molar enthalpy,"[1]; 413.15 K, x2 = 0.6925",0.134 ± 0.0031 kJ/mol
same,excess molar enthalpy,"[1]; 413.15 K, x2 = 0.8183",0.083 ± 0.0021 kJ/mol
same,excess molar enthalpy,"[1]; 413.15 K, x2 = 0.9311",0.0318 ± 0.0011 kJ/mol
C=CCCCCC [1-heptene] + CCCCCCCCn1cc[n+](C)c1.O=S(=O)([O-])C(F)(F)F,activity coefficient,"[2]; 303.21 K, dilutor technique",6.11 ± 0.31
same,activity coefficient,"[2]; 313.15 K, dilutor technique",6.03 ± 0.3
same,activity coefficient,"[2]; 323.14 K, dilutor technique",5.97 ± 0.3
same,activity coefficient,"[2]; 333.12 K, dilutor technique",5.89 ± 0.29
C=CCCCCC [1-heptene] + CCCCCCn1cc[n+](C)c1.O=S(=O)([O-])C(F)(F)F,activity coefficient,"[2]; 303.14 K, Chromatography",11.2 ± 0.76
same,activity coefficient,"[2]; 303.16 K, dilutor technique",11 ± 0.55
same,activity coefficient,"[2]; 313.15 K, Chromatography",10.8 ± 0.74
same,activity coefficient,"[2]; 313.17 K, dilutor technique",10.6 ± 0.53
same,activity coefficient,"[2]; 323.15 K, Chromatography",10.6 ± 0.72
same,activity coefficient,"[2]; 323.15 K, dilutor technique",10.4 ± 0.52
same,activity coefficient,"[2]; 333.14 K, Chromatography",10.4 ± 0.71
same,activity coefficient,"[2]; 333.18 K, dilutor technique",10.1 ± 0.5
C=CCCCCC [1-heptene] + CCCCn1cc[n+](C)c1.O=S(=O)([O-])C(F)(F)F,activity coefficient,"[2]; 303.17 K, Dilutor technique",22.1 ± 1.1
same,activity coefficient,"[2]; 303.45 K, Chromatography",21.8 ± 1.5
same,activity coefficient,"[2]; 313.13 K, Dilutor technique",21.2 ± 1.1
same,activity coefficient,"[2]; 313.15 K, Chromatography",21.3 ± 1.5
same,activity coefficient,"[2]; 323.14 K, Chromatography",20.6 ± 1.4
same,activity coefficient,"[2]; 323.16 K, Dilutor technique",20.2 ± 1
same,activity coefficient,"[2]; 333.15 K, Chromatography",19.9 ± 1.4
same,activity coefficient,"[2]; 333.16 K, Dilutor technique",19.7 ± 0.99
CCCCCCn1cc[n+](C)c1.O=S(=O)([O-])C(F)(F)F [1-hexyl-3-methylimidazolium trifluoromethanesulfonate],mass density,[3]; 308.16 K,1231.4 ± 0.2 kg/m3
same,mass density,[3]; 313.16 K,1227.6 ± 0.2 kg/m3
same,mass density,[3]; 318.16 K,1223.8 ± 0.2 kg/m3
same,mass density,[3]; 323.16 K,1220 ± 0.2 kg/m3
same,mass density,[3]; 328.16 K,1216.2 ± 0.2 kg/m3
same,mass density,[3]; 333.16 K,1212.5 ± 0.2 kg/m3
same,mass density,[3]; 338.16 K,1208.7 ± 0.2 kg/m3
same,mass density,[3]; 343.16 K,1205 ± 0.2 kg/m3
same,mass density,[3]; 348.15 K,1201.3 ± 0.2 kg/m3
CCCCCCn1cc[n+](C)c1.O=S(=O)([O-])C(F)(F)F [1-hexyl-3-methylimidazolium trifluoromethanesulfonate] + C=CCCCC,excess molar enthalpy,"[1]; 413.15 K, x2 = 0.0407",0.0337 ± 0.0012 kJ/mol
same,excess molar enthalpy,"[1]; 413.15 K, x2 = 0.0604",0.0488 ± 0.0014 kJ/mol
same,excess molar enthalpy,"[1]; 413.15 K, x2 = 0.0797",0.0666 ± 0.0018 kJ/mol
same,excess molar enthalpy,"[1]; 413.15 K, x2 = 0.0987",0.0858 ± 0.0022 kJ/mol
same,excess molar enthalpy,"[1]; 413.15 K, x2 = 0.1172",0.102 ± 0.0025 kJ/mol
same,excess molar enthalpy,"[1]; 413.15 K, x2 = 0.1353",0.118 ± 0.0028 kJ/mol
CCCCCCCCn1cc[n+](C)c1.O=S(=O)([O-])C(F)(F)F [1-octyl-3-methylimidazolium trifluoromethanesulfonate],mass density,[3]; 293.15 K,1197 ± 0.2 kg/m3
same,mass density,[3]; 298.15 K,1193.2 ± 0.2 kg/m3
same,mass density,[3]; 303.15 K,1189.5 ± 0.2 kg/m3
same,mass density,[3]; 308.14 K,1185.8 ± 0.2 kg/m3
same,mass density,[3]; 313.15 K,1182.1 ± 0.2 kg/m3
same,mass density,[3]; 318.15 K,1178.4 ± 0.2 kg/m3
same,mass density,[3]; 323.14 K,1174.7 ± 0.2 kg/m3
same,mass density,[3]; 328.14 K,1171.1 ± 0.2 kg/m3
same,mass density,[3]; 333.14 K,1167.4 ± 0.2 kg/m3
same,mass density,[3]; 338.14 K,1163.7 ± 0.2 kg/m3
same,mass density,[3]; 343.15 K,1160.1 ± 0.2 kg/m3
same,mass density,[3]; 348.15 K,1156.5 ± 0.2 kg/m3
same,mass density,[3]; 353.14 K,1152.9 ± 0.2 kg/m3
